Test results as given in ChEMBL document CHEMBL1158028, “Triterpene saponins from Eryngium campestre” (J Nat Prod, 2006).
≈ marks a conversion by molar mass, not a printed value.

Assays:
[1] = Cytotoxicity against human HCT 116 cells by MTT assay; format: functional, cell-based
HT-29 = assay: Cytotoxicity against human HT-29 cells by MTT assay; format: functional, cell-based

SMILES	IC50 [1]	IC50 (HT-29)
CC(C)=CC(=O)O[C@H]1CC(C)(C)C[C@H]2C3=CC[C@@H]4[C@@]5(C)CC[C@H](O[C@@H]6O[C@H](C(=O)O)[C@@H](O[C@H]7O[C@H](C)[C@@H](O)[C@H](O)[C@@H]7O)[C@H](O)[C@H]6O[C@@H]6O[C@H](CO)[C@@H](O)[C@H](O)[C@H]6O)C(C)(C)[C@@H]5CC[C@@]4(C)[C@]3(C)[C@@H](O)[C@@H](O)[C@@]12CO	40 µg/mL (≈ 37.8 µM)	40 µg/mL (≈ 37.8 µM)
C/C=C(/C)C(=O)O[C@H]1[C@H](O)C(C)(C)C[C@H]2C3=CC[C@@H]4[C@@]5(C)CC[C@H](O[C@@H]6O[C@H](C(=O)O)[C@@H](O[C@@H]7O[C@@H](C)[C@H](O)[C@@H](O)[C@H]7O)[C@H](O)[C@H]6O[C@H]6O[C@@H](CO)[C@H](O)[C@@H](O)[C@@H]6O)C(C)(C)[C@@H]5CC[C@@]4(C)[C@]3(C)[C@@H](O)[C@@H](O)[C@]21CO	> 100 µg/mL	> 100 µg/mL
CC(C)=CC(=O)O[C@H]1CC(C)(C)C[C@H]2C3=CC[C@@H]4[C@@]5(C)CC[C@H](O[C@@H]6O[C@H](C(=O)O)[C@@H](O)[C@H](O)[C@H]6O[C@H]6O[C@H](C)[C@@H](O)[C@H](O)[C@@H]6O)C(C)(C)[C@@H]5CC[C@@]4(C)[C@]3(C)[C@@H](O)[C@@H](O)[C@@]12CO	40 µg/mL (≈ 44.7 µM)	40 µg/mL (≈ 44.7 µM)
C/C=C(/C)C(=O)O[C@H]1[C@H](O)C(C)(C)C[C@H]2C3=CC[C@@H]4[C@@]5(C)CC[C@H](O[C@@H]6O[C@H](C(=O)O)[C@@H](O)[C@H](O)[C@H]6O[C@H]6O[C@H](C)[C@@H](O)[C@H](O)[C@@H]6O)C(C)(C)[C@@H]5CC[C@@]4(C)[C@]3(C)[C@@H](O)[C@@H](O)[C@]21COC(C)=O	> 100 µg/mL	> 100 µg/mL
C/C=C(/C)C(=O)O[C@H]1[C@H](OC(C)=O)C(C)(C)C[C@H]2C3=CC[C@@H]4[C@@]5(C)CC[C@H](O[C@@H]6O[C@H](C(=O)O)[C@@H](O)[C@H](O)[C@H]6O[C@H]6O[C@H](C)[C@@H](O)[C@H](O)[C@@H]6O)C(C)(C)[C@@H]5CC[C@@]4(C)[C@]3(C)[C@@H](O)[C@@H](O)[C@]21CO	40 µg/mL (≈ 42 µM)	40 µg/mL (≈ 42 µM)
CC(=O)OC1[C@H](OC(=O)C=C(C)C)[C@]2(CO)[C@H](O)[C@H](O)[C@]3(C)C(=CC[C@@H]4[C@@]5(C)CC[C@H](O[C@@H]6O[C@H](C(=O)O)[C@@H](O)[C@H](O)[C@H]6O[C@H]6O[C@H](C)[C@@H](O)[C@H](O)[C@@H]6O)C(C)(C)[C@@H]5CC[C@]43C)[C@@H]2CC1(C)C (stereo not given in full)	40 µg/mL (≈ 42 µM)	40 µg/mL (≈ 42 µM)
C/C=C(/C)C(=O)O[C@H]1[C@H](O)C(C)(C)C[C@H]2C3=CC[C@@H]4[C@@]5(C)CC[C@H](O[C@@H]6O[C@H](C(=O)O)[C@@H](O)[C@H](O)[C@H]6O[C@H]6O[C@H](C)[C@@H](O)[C@H](O)[C@@H]6O)C(C)(C)[C@@H]5CC[C@@]4(C)[C@]3(C)[C@@H](O)[C@@H](O)[C@]21CO	40 µg/mL (≈ 43.9 µM)	40 µg/mL (≈ 43.9 µM)
CC(=O)O[C@H]1C(=O)[C@@]2(C)[C@H]([C@H](OC(=O)c3ccccc3)[C@]3(O)C[C@H](OC(=O)[C@H](O)[C@@H](NC(=O)c4ccccc4)c4ccccc4)C(C)=C1C3(C)C)[C@]1(OC(C)=O)CO[C@@H]1C[C@@H]2O [PACLITAXEL]	0.008 µg/mL (≈ 0.00937 µM)	–
